The values below come from US12065441B2, “Pyrazolopyrimidine derivative, use thereof and pharmaceutical composition” (GENGLE THERAPEUTICS, INC., priority 2018, dated 2024).

The nature of series [1]: Pharmacokinetics experiment in mice (intravenous and oral). The following applies: for F: 10 mg/kg oral vs 2 mg/kg intravenous; for AUC(0-t) / MRT inf / clearance / half-life / Vd / Cmax / Tmax: both sexes, mouse, blood, single dose; for half-life: read-out: Terminal t1/2 (converted); for Vd: read-out: Vss. It counts as in vivo. How it is done:
Experimental animals: mice, male and female, weight: 23-25 g;
Preparation of the test articles: The target compounds (Ig, Ii, and Ip) were prepared as 0.4 mg/mL (for intravenous administration) and 1.0 mg/mL (for oral administration), for later use. Administration route: oral administration/intravenous injection. Dosing volume and frequency: 5 mL/kg (intravenous injection) or 10 mL/kg (oral administration), single dose.
Sample collection: Blood was collected at the following time points, 5 min, 15 min, 30 min, 1 hr, 2 hr, 4 hr, 8 hr and 24 hr after administration.
Sample analysis: LC-MS/MS method was used to detect the collected samples. The instrument model used was Triple Quad 6500+.
Pharmacokinetic data analysis: WinNolin was used to fit and calculate the obtained blood drug concentration data according to the non-compartmental model method, and partial results are summarized in Table 2.

In series [2] the target is T1, JAK3 (Homo sapiens, UniProt P52333).
T1 sequence (P52333 1-1124): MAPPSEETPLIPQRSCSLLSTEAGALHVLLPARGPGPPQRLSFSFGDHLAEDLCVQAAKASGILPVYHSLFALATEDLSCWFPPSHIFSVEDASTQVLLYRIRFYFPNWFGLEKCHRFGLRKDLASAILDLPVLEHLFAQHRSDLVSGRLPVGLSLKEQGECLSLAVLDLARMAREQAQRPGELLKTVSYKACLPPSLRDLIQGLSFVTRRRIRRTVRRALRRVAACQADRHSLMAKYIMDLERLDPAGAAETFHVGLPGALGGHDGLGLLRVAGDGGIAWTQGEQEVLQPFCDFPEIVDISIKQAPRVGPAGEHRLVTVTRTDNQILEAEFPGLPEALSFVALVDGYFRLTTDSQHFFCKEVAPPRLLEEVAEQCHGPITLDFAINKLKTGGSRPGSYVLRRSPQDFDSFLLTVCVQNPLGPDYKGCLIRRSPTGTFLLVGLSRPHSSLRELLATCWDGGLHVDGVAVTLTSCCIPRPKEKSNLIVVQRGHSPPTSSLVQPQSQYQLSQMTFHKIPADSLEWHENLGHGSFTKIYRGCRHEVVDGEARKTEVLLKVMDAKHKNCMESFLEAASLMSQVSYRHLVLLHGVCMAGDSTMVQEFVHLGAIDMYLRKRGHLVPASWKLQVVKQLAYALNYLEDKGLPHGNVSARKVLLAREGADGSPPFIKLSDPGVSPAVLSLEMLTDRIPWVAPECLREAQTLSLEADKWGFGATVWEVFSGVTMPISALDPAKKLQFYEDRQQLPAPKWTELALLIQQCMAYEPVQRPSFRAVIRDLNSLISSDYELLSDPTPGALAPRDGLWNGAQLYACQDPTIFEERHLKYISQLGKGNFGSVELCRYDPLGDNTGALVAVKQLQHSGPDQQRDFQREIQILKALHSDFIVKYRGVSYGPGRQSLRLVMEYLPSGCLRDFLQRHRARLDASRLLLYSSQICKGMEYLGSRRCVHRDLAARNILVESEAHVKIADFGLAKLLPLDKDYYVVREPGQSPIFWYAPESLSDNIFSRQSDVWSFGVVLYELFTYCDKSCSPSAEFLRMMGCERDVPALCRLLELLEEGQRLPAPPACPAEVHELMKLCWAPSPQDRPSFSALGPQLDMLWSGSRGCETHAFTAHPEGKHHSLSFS
In words: Caliper Mobility Shift Assay, kinase enzyme activity, JAK3. It counts as biochemical. The following applies: for inhibitory activity on JAK3 (in words): JAK3, summary of Table 1; for IC50: JAK3, read-out: Kinase inhibitory activity (IC50, nM) JAK3. How it is done:
(§1) The half-inhibition concentration IC50 of the compound (the concentration of the compound required to inhibit the enzyme activity to 50%) is measured by mixing the fixed enzyme with a specific substrate and different concentrations of the test compound. The measurement method used was Caliper Mobility Shift Assay, the kinases measured were JAK1, JAK2, JAK3 and TYK2, and the standard reference compound used was staurosporine.

The target in series [3] is JAK1 (Homo sapiens, UniProt P23458). In words: Caliper Mobility Shift Assay, kinase enzyme activity, JAK1. It counts as biochemical. Conditions: for inhibitory effect on kinase JAK1 (in words): JAK1, summary of Table 1; for IC50: JAK1, read-out: Kinase inhibitory activity (IC50, nM) JAK1. How it is done: as §1
Series [4] addresses JAK2 (Homo sapiens, UniProt O60674). In words: Caliper Mobility Shift Assay, kinase enzyme activity, JAK2. Conditions: for inhibitory effect on kinase JAK2 (in words): JAK2, summary of Table 1; for IC50: JAK2, read-out: Kinase inhibitory activity (IC50, nM) JAK2. It counts as biochemical. How it is done: as §1
In series [5] the target is TYK2 (Homo sapiens, UniProt P29597). In words: Caliper Mobility Shift Assay, kinase enzyme activity, TYK2. Conditions: for inhibitory activity on TYK2 (in words): TYK2, summary of Table 1; for IC50: TYK2, read-out: Kinase inhibitory activity (IC50, nM) TYK2. It counts as biochemical. How it is done: as §1

The structures appear in SMILES notation. Read-outs that look alike come from different tables or passages of the source.

Chain of JAK1 (P23458 whole entry): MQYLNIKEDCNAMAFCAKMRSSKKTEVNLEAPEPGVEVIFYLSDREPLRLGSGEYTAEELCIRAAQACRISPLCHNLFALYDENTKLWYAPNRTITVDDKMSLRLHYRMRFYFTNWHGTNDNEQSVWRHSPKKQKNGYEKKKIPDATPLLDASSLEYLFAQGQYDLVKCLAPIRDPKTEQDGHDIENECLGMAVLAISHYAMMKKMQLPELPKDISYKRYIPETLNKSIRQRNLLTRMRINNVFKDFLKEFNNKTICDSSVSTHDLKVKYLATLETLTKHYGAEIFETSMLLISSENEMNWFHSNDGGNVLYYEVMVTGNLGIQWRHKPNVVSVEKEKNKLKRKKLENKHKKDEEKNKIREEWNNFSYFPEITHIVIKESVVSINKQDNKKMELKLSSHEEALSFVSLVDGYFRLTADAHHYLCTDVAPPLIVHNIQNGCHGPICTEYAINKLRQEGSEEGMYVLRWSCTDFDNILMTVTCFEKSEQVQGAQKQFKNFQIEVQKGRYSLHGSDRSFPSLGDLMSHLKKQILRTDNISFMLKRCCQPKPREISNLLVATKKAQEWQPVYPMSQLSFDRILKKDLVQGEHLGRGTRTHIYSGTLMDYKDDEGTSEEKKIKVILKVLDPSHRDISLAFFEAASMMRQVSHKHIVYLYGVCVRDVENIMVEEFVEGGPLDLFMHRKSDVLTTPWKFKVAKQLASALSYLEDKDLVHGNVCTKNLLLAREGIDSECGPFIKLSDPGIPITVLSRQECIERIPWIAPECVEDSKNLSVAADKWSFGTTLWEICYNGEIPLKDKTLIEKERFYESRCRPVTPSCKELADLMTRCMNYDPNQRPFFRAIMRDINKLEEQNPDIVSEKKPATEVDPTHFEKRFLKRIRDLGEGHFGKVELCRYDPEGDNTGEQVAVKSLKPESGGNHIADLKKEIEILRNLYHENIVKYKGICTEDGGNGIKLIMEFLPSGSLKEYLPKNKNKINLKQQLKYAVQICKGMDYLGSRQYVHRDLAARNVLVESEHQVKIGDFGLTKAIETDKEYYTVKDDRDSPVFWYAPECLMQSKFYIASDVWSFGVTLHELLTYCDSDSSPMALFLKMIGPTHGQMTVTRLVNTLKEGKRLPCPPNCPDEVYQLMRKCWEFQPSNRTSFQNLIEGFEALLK
Chain of TYK2 (P29597 whole entry): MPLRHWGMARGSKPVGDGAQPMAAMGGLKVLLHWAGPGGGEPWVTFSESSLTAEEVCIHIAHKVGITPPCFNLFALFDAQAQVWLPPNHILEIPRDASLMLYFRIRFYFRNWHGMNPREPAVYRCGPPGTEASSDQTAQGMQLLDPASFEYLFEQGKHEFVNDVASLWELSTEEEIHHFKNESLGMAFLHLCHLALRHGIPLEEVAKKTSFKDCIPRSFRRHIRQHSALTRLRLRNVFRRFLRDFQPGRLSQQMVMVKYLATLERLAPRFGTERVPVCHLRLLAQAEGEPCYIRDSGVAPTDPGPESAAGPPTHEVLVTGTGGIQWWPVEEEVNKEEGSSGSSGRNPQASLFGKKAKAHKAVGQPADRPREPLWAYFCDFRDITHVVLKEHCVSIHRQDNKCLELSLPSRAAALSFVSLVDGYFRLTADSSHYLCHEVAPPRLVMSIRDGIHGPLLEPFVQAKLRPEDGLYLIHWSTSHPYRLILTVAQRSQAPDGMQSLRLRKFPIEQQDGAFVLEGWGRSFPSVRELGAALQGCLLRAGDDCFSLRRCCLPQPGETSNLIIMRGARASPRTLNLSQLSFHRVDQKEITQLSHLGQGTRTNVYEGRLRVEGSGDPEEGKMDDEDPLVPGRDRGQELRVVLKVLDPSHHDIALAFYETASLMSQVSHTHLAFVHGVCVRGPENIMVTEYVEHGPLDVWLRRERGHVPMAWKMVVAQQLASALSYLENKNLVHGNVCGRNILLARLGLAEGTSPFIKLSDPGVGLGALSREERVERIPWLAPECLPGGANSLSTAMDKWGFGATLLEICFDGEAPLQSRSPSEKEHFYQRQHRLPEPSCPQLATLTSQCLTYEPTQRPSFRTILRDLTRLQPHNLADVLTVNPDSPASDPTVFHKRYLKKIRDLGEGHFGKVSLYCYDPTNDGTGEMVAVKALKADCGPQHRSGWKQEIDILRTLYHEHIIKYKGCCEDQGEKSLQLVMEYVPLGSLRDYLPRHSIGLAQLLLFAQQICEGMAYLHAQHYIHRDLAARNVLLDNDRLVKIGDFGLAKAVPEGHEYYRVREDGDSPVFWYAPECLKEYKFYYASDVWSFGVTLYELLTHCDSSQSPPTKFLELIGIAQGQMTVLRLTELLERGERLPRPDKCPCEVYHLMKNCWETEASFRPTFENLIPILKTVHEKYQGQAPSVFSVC
Chain of JAK2 (O60674 whole entry): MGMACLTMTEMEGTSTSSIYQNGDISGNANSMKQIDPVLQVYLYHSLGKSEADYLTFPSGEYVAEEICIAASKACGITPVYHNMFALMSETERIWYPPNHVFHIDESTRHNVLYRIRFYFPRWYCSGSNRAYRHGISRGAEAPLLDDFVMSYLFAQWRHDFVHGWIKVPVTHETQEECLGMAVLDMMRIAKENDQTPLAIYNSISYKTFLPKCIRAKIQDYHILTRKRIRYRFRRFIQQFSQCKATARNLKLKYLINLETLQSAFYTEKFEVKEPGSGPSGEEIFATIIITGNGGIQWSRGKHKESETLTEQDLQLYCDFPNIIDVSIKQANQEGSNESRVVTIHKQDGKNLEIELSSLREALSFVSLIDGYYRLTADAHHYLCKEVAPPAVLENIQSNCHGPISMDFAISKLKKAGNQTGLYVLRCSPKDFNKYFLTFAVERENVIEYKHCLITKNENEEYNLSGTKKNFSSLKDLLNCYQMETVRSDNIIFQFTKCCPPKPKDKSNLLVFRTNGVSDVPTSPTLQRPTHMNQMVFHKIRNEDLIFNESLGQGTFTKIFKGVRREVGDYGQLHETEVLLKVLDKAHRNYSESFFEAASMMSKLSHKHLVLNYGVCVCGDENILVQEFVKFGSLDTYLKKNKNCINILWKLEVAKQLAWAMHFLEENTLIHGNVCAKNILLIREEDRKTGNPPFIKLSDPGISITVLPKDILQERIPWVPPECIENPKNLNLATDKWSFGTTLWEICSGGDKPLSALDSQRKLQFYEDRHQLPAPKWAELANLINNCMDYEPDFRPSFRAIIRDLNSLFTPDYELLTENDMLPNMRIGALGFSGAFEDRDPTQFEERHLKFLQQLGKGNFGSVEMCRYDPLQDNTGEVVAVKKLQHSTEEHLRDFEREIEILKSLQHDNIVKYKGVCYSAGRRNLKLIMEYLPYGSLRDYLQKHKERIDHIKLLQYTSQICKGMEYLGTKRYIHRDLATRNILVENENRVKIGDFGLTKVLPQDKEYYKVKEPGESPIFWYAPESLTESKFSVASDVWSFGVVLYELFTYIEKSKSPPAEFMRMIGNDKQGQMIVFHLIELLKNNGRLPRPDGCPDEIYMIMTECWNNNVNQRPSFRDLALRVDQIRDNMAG

The AUC(0-t) is exposure summed from dosing to a finite time, without extrapolation to infinity. Higher therefore signals high exposure. As a reminder, the MRT inf is the average time that molecules of a dose stay in the body. For orientation: Cmax means the peak of the concentration-time curve. One may read the Tmax as the time from dosing to the highest level. As usually defined, the IC50 is the point on the concentration scale where inhibition reaches its midpoint. `N#CCC1(n2cc(-c3ncnc4[nH]ncc34)cn2)CN(C2CCN(C(=O)c3ccnc(C(F)(F)F)c3F)CC2)C1` [Compound Ii] displayed a F in series [1] of 37.9%. Besides, in series [1] (2 mg/kg, intravenous injection), the AUC(0-t) is 900 ng·h/mL, the MRT inf was found to be 35.8 min, the clearance was 37.3 mL/min/kg and the half-life is 50 min. Moreover, the Vd in series [1] (2 mg/kg, intravenous injection) turned out to be 1.32 L/kg. Also, in series [1] (10 mg/kg, oral administration), the AUC(0-t) turned out to be 1710 ng·h/mL, the Cmax is 904 ng/mL, the Tmax was 60 min and the half-life was 59.2 min. In addition, in series [2], the “inhibitory activity on JAK3 (in words)” value is “weak inhibitory activity” and the IC50 worked out at 3770 nM. In series [3], the “inhibitory effect on kinase JAK1 (in words)” value was “strong inhibitory effect” and the IC50 stood at 39 nM. Also, in series [4], the “inhibitory effect on kinase JAK2 (in words)” value was “strong inhibitory effect” and the IC50 stood at 126 nM. Further, in series [5], the “inhibitory activity on TYK2 (in words)” value is on record as “weak inhibitory activity” and the IC50 stood at 2660 nM.
Turning to `CCS(=O)(=O)N1CCC(N2CC(CC#N)(n3cc(-c4ncnc5[nH]ncc45)cn3)C2)CC1` [Compound Ig], in series [1], the F came to 51.7%. Further, in series [1] (2 mg/kg, intravenous injection), the AUC(0-t) was found to be 883 ng·h/mL, the MRT inf was 26.8 min, the clearance was 37.5 mL/min/kg and the half-life is 23.4 min. Moreover, the Vd in series [1] (2 mg/kg, intravenous injection) came to 0.997 L/kg. Further, in series [1] (10 mg/kg, oral administration), the AUC(0-t) turned out to be 2290 ng·h/mL, the Cmax came out at 1310 ng/mL, the time of peak concentration (Tmax) was 22.5 min and the half-life was 70.8 min. In series [2], the “inhibitory activity on JAK3 (in words)” value is given as “weak inhibitory activity” and the IC50 stood at 2060 nM. Moreover, in series [3], the “inhibitory effect on kinase JAK1 (in words)” value is recorded as “strong inhibitory effect” and the IC50 stood at 58 nM. In series [4], the “inhibitory effect on kinase JAK2 (in words)” value is on record as “strong inhibitory effect” and the IC50 came to 47 nM. Besides, in series [5], the “inhibitory activity on TYK2 (in words)” value was “weak inhibitory activity” and the IC50 is 1230 nM.
Take `CCS(=O)(=O)N1CC(CC#N)(n2cc(-c3ncnc4[nH]ncc34)cn2)C1` [Compound Ip]: the F in series [1] is reported as 99.4%. Besides, in series [1] (2 mg/kg, intravenous injection), the AUC(0-t) came to 1200 ng·h/mL, the MRT inf was 63.6 min, the clearance was 27.3 mL/min/kg and the half-life was 83.4 min. In series [1] (2 mg/kg, intravenous injection), the Vd is 1.74 L/kg. Also, in series [1] (10 mg/kg, oral administration), the AUC(0-t) is 5950 ng·h/mL, the concentration peaked (Cmax) at 3380 ng/mL, the Tmax was determined as 15 min and the half-life was 84 min. Further, in series [2], the “inhibitory activity on JAK3 (in words)” value is recorded as “weak inhibitory activity” and the IC50 was 423 nM. In addition, in series [4], the “inhibitory effect on kinase JAK2 (in words)” value is recorded as “strong inhibitory effect” and the IC50 is 12 nM. For the same compound, in series [5], the “inhibitory activity on TYK2 (in words)” value is reported as “weak inhibitory activity” and the IC50 was found to be 209 nM.
